Molecules are shown by their SMILES.

This data set can be described thus: Liver microsomal stability (extraction ratio). The conditions noted are these: test compound 1 μM; 0.5 mg/mL liver microsomes, NADPH 1 mM, 37° C.; predicted hepatic clearance (well-stirred model) divided by species blood flow; species not given. The data set is classed as in vitro ADME. Here is the method:
Protocol for Liver Microsomal Stability (Extraction Ratio)
Liver Microsomal Stability. Microsomal stability studies (Chrovian et al, “1H-Pyrrolo[3,2-b]pyridine GluN2B-Selective Negative Allosteric Modulators”. ACS Med Chem Lett. 2019 Jan. 10; 10(3):261-266) were conducted on a Biomek® FX Robotic Liquid Handling Workstation (Beckman Coulter, Brea, Calif.), which consists of a 96-channel pipette head, a 12-position workstation deck, and a plate incubator. Test compounds (1 μM) were spiked in a reaction mix consisting of 100 mM potassium phosphate buffer (pH 7.4), 3 mM MgCl2, and 0.5 mg/mL liver microsomes from mouse, rat, and human (BD Gentest). The reaction was brought to 37° C. and initiated by adding NADPH to a final concentration of 1 mM. After mixing on the plate deck, 50 μL aliquots were excised from the reaction plate at 0, 5, 10, 20, 40, and 60 min and quenched with four volumes of acetonitrile spiked with […] of the internal standard phenytoin. Quenched plates were centrifuged at 5700 rpm for 10 min at 4° C., and supernatant was diluted 1:3 in water before LC/MS/MS analysis. The compound half-lives were derived from plots of the ln of percent remaining compound over time to determine the intrinsic clearance. The predicted hepatic clearance was derived from the intrinsic clearance value using equations from the well-stirred model (Current Drug Metabolism, 2008, 9, 940-951), where no correction was made plasma protein binding and the blood to plasma concentration ratio was assumed to be one. The extraction ratio (ER) was calculated by dividing the predicted hepatic clearance by species blood flow (Q), where Q is 90, 55, and 21.7 mL/min/kg for mouse, rat and human, respectively.
Take `CC[S+]([O-])Cn1ncc2ncc(-c3cccc(C(F)(F)F)c3F)cc21` (racemic) [Example 86, (RS)-1-(Ethylsulfinylmethyl)-6-[2-fluoro-3-(trifluoromethyl)phenyl]pyrazolo[4,3-b]pyridine]: the “Extraction Ratio @ 1 μM” value is on record as 0.50.
Regarding `CCN1CC(Cn2ncc3ncc(-c4ccc(F)c(C(F)F)c4)cc32)OC1=O` (racemic) [Example 131, (RS)-5-[[6-[3-(Difluoromethyl)-4-fluoro-phenyl]pyrazolo[4,3-b]pyridin-1-yl]methyl]-3-ethyl-oxazolidin-2-one], the “Extraction Ratio @ 1 μM” value was 0.58.
In the case of `CC[S+]([O-])Cn1ncc2ncc(-c3ccc(F)c(C(F)F)c3)cc21` (single isomer, unassigned) [Example 85, (R*)-6-(3-(Difluoromethyl)-4-fluorophenyl)-1-((ethylsulfinyl)methyl)-1H-pyrazolo[4,3-b]pyridine] it was 0.46; in that of `CCC(=O)Cn1ncc2ncc(-c3ccc(F)c(C(F)F)c3)cc21` [Example 4, 1-[6-[3-(Difluoromethyl)-4-fluoro-phenyl]pyrazolo[4,3-b]pyridin-1-yl]butan-2-one], 0.66; in that of `CC(=O)Cn1ncc2ncc(-c3ccc(F)c(OC(F)F)c3)cc21` [Example 25, 1-[6-[3-(Difluoromethoxy)-4-fluoro-phenyl]pyrazolo[4,3-b]pyridin-1-yl]propan-2-one], 0.64.
In the case of `CCC(=O)Cn1nc(C)c2ncc(-c3ccc(F)c(C(F)F)c3)cc21` [Example 36, 1-(6-(3-(Difluoromethyl)-4-fluorophenyl)-3-methyl-1H-pyrazolo[4,3-b]pyridin-1-yl)butan-2-one] it was 0.72.
In the case of `CCC(=O)Cn1ncc2ncc(-c3cccc(C(F)(F)F)c3F)cc21` [Example 38, 1-[6-[2-Fluoro-3-(trifluoromethyl)phenyl]pyrazolo[4,3-b]pyridin-1-yl]butan-2-one] it was 0.61; in that of `CCC(=O)Cn1ncc2ncc(-c3cc(F)c(F)c(F)c3)cc21` [Example 42, 1-[6-(3,4,5-Trifluorophenyl)pyrazolo[4,3-b]pyridin-1-yl]butan-2-one], 0.63.
On to `O=C(Cn1ncc2ncc(-c3cccc(C(F)F)c3)cc21)C1CC1` [Example 61, 1-Cyclopropyl-2-[6-[3-(difluoromethyl)phenyl]pyrazolo[4,3-b]pyridin-1-yl]ethanone], for which the “Extraction Ratio @ 1 μM” value is given as 0.43.
Turning to `Cc1c(F)ccc(-c2cnc3cnn(CC(=O)C4CC4)c3c2)c1C` [Example 78, 1-Cyclopropyl-2-[6-(4-fluoro-2,3-dimethyl-phenyl)pyrazolo[4,3-b]pyridin-1-yl]ethanone], the “Extraction Ratio @ 1 μM” value is on record as 0.52.

The record behind these values is patent US20220324860A1, “SUBSTITUTED PYRAZOLO[4,3-b]PYRIDINES AND THEIR USE AS GLUN2B RECEPTOR MODULATORS” (JANSSEN PHARMACEUTICA NV, priority 2019, published 2022).
